According to ChEMBL document CHEMBL5226304, “Fused-azepinones: Emerging scaffolds of medicinal importance” (Eur J Med Chem, 2021):
Converted amounts (≈) assume the structure as drawn. Each block holds one compound with its values, some of them ahead of it.

Columns and labels:
[1] = biological target: Cyclin-dependent kinase 5/CDK5 activator 1 (Homo sapiens, UniProt Q00535); assay: Inhibition of CDK5/p25 (unknown origin); format: protein-complex assay
[2] = biological target: Dual specificity mitogen-activated protein kinase kinase 1 (Homo sapiens, UniProt Q02750); assay: Inhibition of MEK1 (unknown origin)
Rattus norvegicus [3] = assay: Antiarthritic activity in adjuvant-induced arthritis rat model assessed as reduction in paw swelling at 20 mg/kg, ip administered for day 6 to 10 post adjuvant measured on day 16 to 20 relative to control; format: functional
Homo sapiens = organism: Homo sapiens; assay: Selectivity ratio of IC50 for Chk1 (unknown origin) to IC50 for (unknown origin)
L5178Y = assay: Cytotoxicity against mouse L5178Y cells by MTT assay; format: functional, cell-based
[4] = biological target: Cyclin-dependent kinase 1/cyclin B (Homo sapiens, UniProt P06493); assay: Inhibition of CDK1/Cyclin B (unknown origin) in presence of gamma32P-ATP by scintillation counter analysis; format: protein-complex assay
Protein kinase C (PKC) = assay: Inhibition of Protein kinase C (unknown origin); format: protein assay, Homo sapiens
Rattus norvegicus [5] = assay: Antiarthritic activity in adjuvant-induced arthritis rat model assessed as reduction in paw swelling at 10 mg/kg, ip administered for day 6 to 10 post adjuvant measured on day 16 to 20 relative to control; format: functional
MOLT-3 = assay: Cytotoxicity against human MOLT-3 cells by MTT assay; format: functional, cell-based
Tubulin = assay: Inhibition of tubulin polymerization (unknown origin); format: protein-complex assay, Homo sapiens
HepG2 = assay: Cytotoxicity against human HepG2 cells by MTT assay; format: functional, cell-based
Mus musculus [6] = organism: Mus musculus; assay: Neuroprotective activity in Swiss mouse cortical neurons assessed as increase in cell viability in presence of H2O2 at 1 nM relative to control; format: functional
Rattus norvegicus [7] = assay: Hypotensive effect in rat vascular smooth muscles assessed as reduction in arterial blood pressure at 5 mg/kg measured after 15 mins; format: functional; details: Smooth muscle tissue, 0.25 h
A549 = assay: Cytotoxicity against human A549 cells by MTT assay; format: functional, cell-based
P388 = assay: Cytotoxicity against mouse P388 cells; format: functional; details: read-out: ED50 (the source's name)
[8] = biological target: DNA topoisomerase 2-alpha (Homo sapiens, UniProt P11388); assay: Inhibition of topoisomerase 2 alpha (unknown origin)
THP-1 [9] = assay: Antiinflammatory activity in human THP-1 cells assessed as inhibition of LPS-stimulated IL2 production; format: functional, cell-based
Casein kinase I = assay: Inhibition of CK1 (unknown origin); format: protein assay, Homo sapiens
Mus musculus [10] = organism: Mus musculus; assay: Neuroprotective activity in Swiss mouse cortical neurons assessed as increase in cell viability in presence of H2O2 at 10 nM relative to control; format: functional
Bos taurus [11] = organism: Bos taurus; assay: Inhibition of Interleukin-1- stimulated proteoglycan degradation in bovine articular cartilage; format: functional; details: Cartilage tissue
CDK3/Cyclin E = CDK3/Cyclin E (Homo sapiens, UniProt Q00526); assay: Inhibition of CDK3/Cyclin E (unknown origin); format: protein-complex assay
Bos taurus [12] = organism: Bos taurus; assay: Inhibition of Interleukin-1- stimulated iNOS gene expression in bovine articular cartilage; format: functional; details: Cartilage tissue
[13] = Inhibition of cAMP-dependent protein kinase (unknown origin); parameters: species or system Homo sapiens
KB 3-1 = assay: Cytotoxicity against human KB-3-1 cells by MTT assay; format: functional, cell-based
DNA topoisomerase 1 = DNA topoisomerase 1 (Homo sapiens, UniProt P11387); assay: Inhibition of topoisomerase 1 (unknown origin)
[14] = Inhibition of cGMP-dependent protein kinase (unknown origin); parameters: species or system Homo sapiens
[15] = biological target: Human immunodeficiency virus type 1 reverse transcriptase (Human immunodeficiency virus 1) (UniProt Q72547); assay: Inhibition of HIV1 Reverse transcriptase at 25 uM relative to control
[16] = biological target: Cyclin-dependent kinase 4/cyclin D1 (Homo sapiens, UniProt P11802); assay: Inhibition of CDK4/Cyclin D1 (unknown origin); format: protein-complex assay
[17] = biological target: Mitogen-activated protein kinase 3 (Homo sapiens, UniProt P27361); assay: Inhibition of Erk1 (unknown origin)
CDK1/Cyclin E = CDK1/Cyclin E (Homo sapiens, UniProt P06493); assay: Inhibition of CDK1/Cyclin E (unknown origin); format: protein-complex assay
Casein kinase 2 = Casein kinase 2 (Homo sapiens, UniProt P67870+P68400+P19784+Q8NEV1); assay: Inhibition of CK2 (unknown origin); format: protein assay
CDK6/cyclin D2 = CDK6/cyclin D2 (Homo sapiens, UniProt P30279+Q00534); assay: Inhibition of CDK6/Cyclin D2 (unknown origin); format: protein-complex assay
[18] = Inhibition of IL-1 stimulated PGE2 production in human rheumatoid synovial fibroblasts; format: functional, cell-based; details: Fibroblast
[19] = biological target: Tyrosine-protein kinase ABL1 (Homo sapiens, UniProt P00519); assay: Inhibition of c-abl (unknown origin)
[20] = test system: Human immunodeficiency virus 1; assay: Antiviral activity against HIV1 assessed as inhibition of LC5-RIC cells infection at 3.1 uM relative to control; format: functional
THP-1 [21] = assay: Antiinflammatory activity in human THP-1 cells assessed as inhibition of LPS-stimulated TNFalpha production; format: functional, cell-based
[22] = Inhibition of MAPKK (unknown origin); parameters: species or system Homo sapiens
[23] = biological target: Proto-oncogene tyrosine-protein kinase Src (Homo sapiens, UniProt P12931); assay: Inhibition of c-Src (unknown origin)
MCF7 = assay: Growth inhibition of human MCF7 cells at 1 uM by MTT assay relative to control; format: functional; details: read-out: GI

Chain of Cyclin-dependent kinase 5/CDK5 activator 1 (Q00535 whole entry): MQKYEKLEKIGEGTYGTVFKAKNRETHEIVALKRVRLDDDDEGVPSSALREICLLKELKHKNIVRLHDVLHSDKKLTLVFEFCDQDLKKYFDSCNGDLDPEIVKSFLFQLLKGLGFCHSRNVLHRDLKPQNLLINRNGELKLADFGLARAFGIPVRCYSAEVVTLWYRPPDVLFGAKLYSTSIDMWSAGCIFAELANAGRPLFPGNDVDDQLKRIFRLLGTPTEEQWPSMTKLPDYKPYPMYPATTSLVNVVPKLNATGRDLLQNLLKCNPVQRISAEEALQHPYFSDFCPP
Chain of Cyclin-dependent kinase 5/CDK5 activator 1 (Q15078 whole entry, further chain): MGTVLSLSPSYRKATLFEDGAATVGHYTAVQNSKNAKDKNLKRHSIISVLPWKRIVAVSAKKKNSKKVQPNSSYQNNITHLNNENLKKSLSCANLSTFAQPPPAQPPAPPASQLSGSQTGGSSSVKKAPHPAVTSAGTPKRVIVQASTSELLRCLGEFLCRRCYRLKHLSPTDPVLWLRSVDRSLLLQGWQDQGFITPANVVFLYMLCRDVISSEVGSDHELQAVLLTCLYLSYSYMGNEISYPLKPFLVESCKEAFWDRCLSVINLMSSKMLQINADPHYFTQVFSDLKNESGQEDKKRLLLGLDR
Chain of Dual specificity mitogen-activated protein kinase kinase 1 (Q02750 whole entry): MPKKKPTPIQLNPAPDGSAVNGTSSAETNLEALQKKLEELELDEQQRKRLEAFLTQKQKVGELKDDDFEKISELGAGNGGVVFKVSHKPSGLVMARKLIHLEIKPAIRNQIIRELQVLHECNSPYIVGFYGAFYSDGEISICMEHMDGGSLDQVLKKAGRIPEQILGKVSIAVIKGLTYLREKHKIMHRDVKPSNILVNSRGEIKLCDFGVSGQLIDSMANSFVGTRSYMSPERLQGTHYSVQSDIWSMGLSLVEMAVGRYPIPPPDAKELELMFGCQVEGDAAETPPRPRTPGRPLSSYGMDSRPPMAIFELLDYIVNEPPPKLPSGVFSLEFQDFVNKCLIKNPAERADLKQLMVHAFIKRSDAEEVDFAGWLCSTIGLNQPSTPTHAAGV
Chain of Mitogen-activated protein kinase 3 (P27361 whole entry): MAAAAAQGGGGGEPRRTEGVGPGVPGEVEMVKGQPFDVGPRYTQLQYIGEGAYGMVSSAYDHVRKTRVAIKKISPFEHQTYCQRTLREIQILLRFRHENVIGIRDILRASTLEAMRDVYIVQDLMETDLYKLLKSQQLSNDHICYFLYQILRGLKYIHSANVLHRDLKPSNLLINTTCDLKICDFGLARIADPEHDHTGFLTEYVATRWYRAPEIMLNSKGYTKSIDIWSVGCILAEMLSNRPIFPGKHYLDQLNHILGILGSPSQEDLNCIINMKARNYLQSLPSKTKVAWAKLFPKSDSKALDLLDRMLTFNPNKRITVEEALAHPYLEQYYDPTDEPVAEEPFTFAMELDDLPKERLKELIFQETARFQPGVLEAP
Chain of DNA topoisomerase 2-alpha (P11388 whole entry): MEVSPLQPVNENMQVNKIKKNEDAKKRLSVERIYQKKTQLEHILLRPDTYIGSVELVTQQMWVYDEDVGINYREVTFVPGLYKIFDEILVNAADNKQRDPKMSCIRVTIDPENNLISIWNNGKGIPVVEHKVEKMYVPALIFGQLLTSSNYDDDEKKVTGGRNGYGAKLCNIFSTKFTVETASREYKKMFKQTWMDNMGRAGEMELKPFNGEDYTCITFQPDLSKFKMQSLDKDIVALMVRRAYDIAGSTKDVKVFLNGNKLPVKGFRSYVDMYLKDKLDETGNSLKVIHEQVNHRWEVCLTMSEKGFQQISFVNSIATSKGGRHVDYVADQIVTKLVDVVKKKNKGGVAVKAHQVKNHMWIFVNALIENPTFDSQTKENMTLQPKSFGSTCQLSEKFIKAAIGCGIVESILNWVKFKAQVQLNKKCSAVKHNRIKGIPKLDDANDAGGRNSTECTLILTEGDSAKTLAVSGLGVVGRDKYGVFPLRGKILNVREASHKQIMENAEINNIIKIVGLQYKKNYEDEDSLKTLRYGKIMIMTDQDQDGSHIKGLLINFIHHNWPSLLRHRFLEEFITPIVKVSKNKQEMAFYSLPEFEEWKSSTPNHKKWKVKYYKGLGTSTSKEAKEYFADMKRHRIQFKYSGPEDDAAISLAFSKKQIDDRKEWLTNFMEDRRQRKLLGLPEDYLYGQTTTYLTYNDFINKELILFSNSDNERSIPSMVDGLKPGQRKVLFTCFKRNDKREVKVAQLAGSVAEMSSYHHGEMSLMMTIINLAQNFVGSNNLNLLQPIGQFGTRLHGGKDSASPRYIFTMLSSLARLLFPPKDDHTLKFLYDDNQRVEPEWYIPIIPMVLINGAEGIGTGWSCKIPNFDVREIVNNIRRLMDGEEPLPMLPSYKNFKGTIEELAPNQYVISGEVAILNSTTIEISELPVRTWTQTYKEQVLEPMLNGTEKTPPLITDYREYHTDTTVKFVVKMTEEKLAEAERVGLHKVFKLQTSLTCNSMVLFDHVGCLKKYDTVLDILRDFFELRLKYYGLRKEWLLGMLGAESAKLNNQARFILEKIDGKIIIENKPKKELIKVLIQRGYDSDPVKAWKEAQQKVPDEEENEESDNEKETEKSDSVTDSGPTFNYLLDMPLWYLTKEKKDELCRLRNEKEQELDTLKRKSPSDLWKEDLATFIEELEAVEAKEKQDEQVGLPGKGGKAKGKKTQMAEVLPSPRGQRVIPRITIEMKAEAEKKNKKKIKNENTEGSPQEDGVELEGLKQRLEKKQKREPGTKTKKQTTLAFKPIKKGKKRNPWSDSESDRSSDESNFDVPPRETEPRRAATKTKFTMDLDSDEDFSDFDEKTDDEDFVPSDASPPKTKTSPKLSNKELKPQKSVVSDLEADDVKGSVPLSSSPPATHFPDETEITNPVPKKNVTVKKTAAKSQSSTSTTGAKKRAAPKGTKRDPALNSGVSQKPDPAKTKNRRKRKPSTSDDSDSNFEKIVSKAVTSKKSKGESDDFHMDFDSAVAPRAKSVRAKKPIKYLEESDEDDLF
Chain of CDK1/Cyclin E (P06493 whole entry): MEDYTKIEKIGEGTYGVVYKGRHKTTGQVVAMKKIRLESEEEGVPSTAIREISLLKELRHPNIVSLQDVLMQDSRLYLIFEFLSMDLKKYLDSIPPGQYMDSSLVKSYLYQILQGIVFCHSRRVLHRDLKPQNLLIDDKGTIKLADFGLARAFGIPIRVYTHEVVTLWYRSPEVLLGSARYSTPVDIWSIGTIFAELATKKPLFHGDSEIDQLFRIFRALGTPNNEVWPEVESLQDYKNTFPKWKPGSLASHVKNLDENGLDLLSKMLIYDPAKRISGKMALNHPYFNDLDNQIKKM
Chain of CDK1/Cyclin E (P24864 whole entry, further chain): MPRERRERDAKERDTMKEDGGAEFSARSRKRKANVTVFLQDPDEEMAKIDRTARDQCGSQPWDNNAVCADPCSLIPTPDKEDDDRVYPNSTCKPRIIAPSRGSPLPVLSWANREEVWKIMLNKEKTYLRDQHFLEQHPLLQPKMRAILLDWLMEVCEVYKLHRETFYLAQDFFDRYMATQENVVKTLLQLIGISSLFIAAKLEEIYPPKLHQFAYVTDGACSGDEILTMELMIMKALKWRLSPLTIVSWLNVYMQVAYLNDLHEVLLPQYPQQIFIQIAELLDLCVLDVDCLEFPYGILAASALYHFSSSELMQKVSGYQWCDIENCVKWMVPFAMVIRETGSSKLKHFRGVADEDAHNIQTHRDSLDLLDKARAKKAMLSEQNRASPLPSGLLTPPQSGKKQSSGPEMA
Chain of CDK3/Cyclin E (P24864 whole entry): as the sequence (P24864 whole entry, further chain) above
Chain of CDK3/Cyclin E (Q00526 whole entry): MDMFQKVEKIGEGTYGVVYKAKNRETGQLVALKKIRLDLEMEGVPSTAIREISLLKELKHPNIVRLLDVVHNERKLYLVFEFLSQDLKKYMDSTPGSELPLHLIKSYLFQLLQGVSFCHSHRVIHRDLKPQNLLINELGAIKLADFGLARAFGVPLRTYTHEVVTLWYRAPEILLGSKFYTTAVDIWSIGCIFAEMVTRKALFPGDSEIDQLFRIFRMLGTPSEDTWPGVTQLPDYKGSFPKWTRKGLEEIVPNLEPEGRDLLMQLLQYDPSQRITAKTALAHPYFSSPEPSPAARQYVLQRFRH
Chain of CDK6/cyclin D2 (Q00534 whole entry): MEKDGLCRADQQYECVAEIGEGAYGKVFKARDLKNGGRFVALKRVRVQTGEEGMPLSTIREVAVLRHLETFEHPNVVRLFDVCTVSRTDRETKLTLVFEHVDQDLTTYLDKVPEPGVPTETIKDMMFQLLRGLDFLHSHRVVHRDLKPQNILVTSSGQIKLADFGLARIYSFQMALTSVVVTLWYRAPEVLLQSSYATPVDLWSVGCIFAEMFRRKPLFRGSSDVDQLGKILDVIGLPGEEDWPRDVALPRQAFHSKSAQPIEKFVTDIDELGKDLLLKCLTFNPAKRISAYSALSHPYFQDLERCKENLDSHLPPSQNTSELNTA
Chain of CDK6/cyclin D2 (P30279 whole entry): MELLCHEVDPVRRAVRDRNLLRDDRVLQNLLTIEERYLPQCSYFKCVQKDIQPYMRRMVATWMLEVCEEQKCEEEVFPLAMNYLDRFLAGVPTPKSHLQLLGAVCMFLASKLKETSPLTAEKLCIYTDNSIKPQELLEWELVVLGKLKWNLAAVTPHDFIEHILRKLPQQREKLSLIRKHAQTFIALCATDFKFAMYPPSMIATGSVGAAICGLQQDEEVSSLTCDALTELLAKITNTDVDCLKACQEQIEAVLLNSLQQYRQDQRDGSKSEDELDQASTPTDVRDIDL

SMILES: NC1=N/C(=C2/CCNC(=O)c3[nH]ccc32)C(=O)N1 [DEBROMOHYMENIALDISINE]
IC50 [1]: 112 nM
IC50 [2]: 820 nM
inhibition in vivo at 20 mg/kg (Rattus norvegicus [3]): > 60%
Ratio IC50 (Homo sapiens): 4
EC50 (L5178Y): 1.8 µg/mL (≈ 7.34 µM)
IC50 [4]: 250 nM
IC50 (Protein kinase C (PKC)): < 10000 nM
inhibition in vivo at 10 mg/kg (Rattus norvegicus [5]): 63%

IC50 (Tubulin): 7700 nM
SMILES: O=C1NCCc2ccccc2-c2c1[nH]c1ccccc21
IC50 (MOLT-3): 9 nM
IC50 (HepG2): 460 nM

SMILES: Nc1nc(C2CCNC(=O)c3[nH]c(Br)c(Br)c32)c[nH]1 (stereo unspecified)
Activity (Mus musculus [6]): 120%
inhibition in vivo at 5 mg/kg (Rattus norvegicus [7]): 90%

SMILES: Cc1ccc2[nH]c3c(c2c1)CNC(=O)c1[nH]c2ccccc2c1-3
IC50 (A549): 4200 nM

SMILES: O=C1NC(=O)/C(=C2/CCNC(=O)c3[nH]c(Br)cc32)N1
EC50 (P388): 18 µg/mL (≈ 55.4 µM)

SMILES: NC1=NC(=O)/C(=C2\CCNC(=O)c3[nH]c(Br)cc32)N1 [HYMENIALDISINE]
IC50 [1]: 25 nM
IC50 [8]: 10000 nM
IC50 (THP-1 [9]): 2400 nM
IC50 (Casein kinase I): 35 nM
Activity (Mus musculus [10]): 120%
IC50 (Bos taurus [11]): 600 nM
IC50 (CDK3/Cyclin E): 100 nM
IC50 (Bos taurus [12]): 800 nM
IC50 [13]: 8000 nM
IC50 (KB 3-1): 3100 nM
EC50 (L5178Y): 3.5 µg/mL (≈ 10.8 µM)
IC50 (DNA topoisomerase 1): 10000 nM
IC50 [14]: 1700 nM
inhibition [15]: 90%
IC50 [16]: 600 nM
IC50 [17]: 470 nM
IC50 (CDK1/Cyclin E): 40 nM
IC50 (Casein kinase 2): 7000 nM
IC50 (CDK6/cyclin D2): 700 nM
IC50 [18]: 600 nM
IC50 [19]: 4000 nM
inhibition at 3.1 µM [20]: 30%
IC50 (THP-1 [21]): 1400 nM
IC50 [22]: 1200 nM
IC50 [23]: 7000 nM

SMILES: O=C1NCc2ccccc2-c2c1sc1ccccc21
inhibition of growth at 1 µM (MCF7): 17%
